Among the data in patent publication US5574012A, “Analogs of hirudin having anti-platelet activity” (Merrell Pharmaceuticals Inc., priority 1995, dated 1996) are IC50 values, retold here.

One test concerns platelets. Put plainly: Dog antiplatelet IC50. In kind it is cell-based.
The next test concerns the target thrombin (Bos taurus, UniProt P00735). Put plainly: biochemical. Particulars: bovine; read-out: Bovine Antithrombin IC50.

Take `CC[C@H](C)[C@H](NC(=O)[C@@H]1CCCN1C(=O)[C@H](CCC(=O)O)NC(=O)[C@H](Cc1c[nH]c2ccccc12)NC(=O)[C@H](CC(=O)O)NC(=O)CNC(=O)CCCCN)C(=O)N1CCC[C@H]1C(=O)N[C@@H](CCC(=O)O)C(=O)N[C@@H](CCC(=O)O)C(=O)N[C@@H](C)C(=O)N[C@@H](CC1CCCCC1)C(=O)N[C@H](CCC(=O)O)C(=O)O` [Example 2]: in the test on platelets, the IC50 was found to be 250 µM.

As to `CC[C@H](C)[C@H](NC(=O)[C@@H]1CCCN1C(=O)[C@H](CCC(=O)O)NC(=O)[C@H](Cc1c[nH]c2ccccc12)NC(=O)[C@H](CC(=O)O)NC(=O)CNC(=O)[C@@H](N)CCCNC(=N)N)C(=O)N1CCC[C@H]1C(=O)N[C@@H](CCC(=O)O)C(=O)N[C@@H](CCC(=O)O)C(=O)N[C@@H](C)C(=O)N[C@@H](CC1CCCCC1)C(=O)N[C@H](CCC(=O)O)C(=O)O` [Example 3], the concentration for half-maximal inhibition (IC50) on thrombin is 2.8 µM.

A word on the IC50: it is the concentration needed to halve the response being measured.
